Laboratory results as given in US9278090B2, “Methods of preventing the development of mucositis and related disorders” (The United States of America, as represented by the …, priority 2012, dated 2016).

System: human primary NOK
Test: Replicative senescence / cumulative population doublings
Type: cell-based
Settings: in the presence of rapamycin; estimated
Procedure: NOK were plated in collagen coated LabTek chamber slides and treated with vehicle or 20 nM rapamycin for 3 days. Cells were then γ-irradiated or not, and further treated with vehicle or rapamycin for 24 h. For TUNEL assay cells were processed for staining immediately, for SA-β-gal cells were passed and assessed 4 days after plating. Apoptosis was detected using the CLICK-IT™ TUNEL ALEXA FLUOR™ 594 Imaging Assay (Life Technologies, Carlsbad, Calif.) and SA-β-gal activity was measured using the SA-β-gal kit (Cell Signaling Technology, Danvers, Mass.) according to the manufacturer's instructions. The proportion of positive cells was determined by fluorescence or transmission microscopy and quantified using ImageJ. Eight different fields containing approximately 60 cells each were quantified per condition. For the calculation of population doublings cells were cultured as described and treated with vehicle or 20 nM rapamycin. Population doublings were calculated every passage using the formula x=[log 10(NH/N1)]/log 10(2)] (Cristofalo et al., PNAS, 95, 10614-10619 (1998)), where N1 is the inoculum cell number and NH the cell harvest number. To yield the cumulated doubling doublings, the population doublings for each passage was calculated and then added to the population doubling levels of the previous passages.

SMILES: CO[C@H]1C[C@@H]2CC[C@@H](C)[C@@](O)(O2)C(=O)C(=O)N2CCCC[C@H]2C(=O)O[C@H]([C@H](C)C[C@@H]2CC[C@@H](O)[C@H](OC)C2)CC(=O)[C@H](C)/C=C(\C)[C@@H](O)[C@@H](OC)C(=O)[C@H](C)C[C@H](C)/C=C/C=C/C=C/1C [rapamycin]
- cells a single cell will give rise to before senescence: around 10^17 cells
